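Interpolation was linear, between the two tested concentrations surrounding the appropriate level; five concentrations were tested over 48 hours in 96-well plates. GI50: concentration for 50% inhibition of growth.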 The source made the active and inactive calls. No stated cut-off is given here; in the data, active = GI50 up to about 1.1 µM and inactive = higher.
Tests used:
Assay in all cases: NCI tumour cell line growth inhibition, 48 h
EKVX = system: EKVX
HL-60 = system: HL-60
UACC-257 = system: UACC-257
MOLT-4 = system: MOLT-4
HT-29 = system: HT-29
SK-MEL-28 = system: SK-MEL-28
SF-268 = system: SF-268
TK-10 = system: TK-10
MDA-MB-231 = system: MDA-MB-231
OVCAR-8 = system: OVCAR-8
DU-145 = system: DU-145
SK-MEL-2 = system: SK-MEL-2
NCI-H23 = system: NCI-H23
A549 = system: A549
KM12 = system: KM12
OVCAR-4 = system: OVCAR-4
NCI/ADR-RES = system: NCI/ADR-RES
A498 = system: A498
SF-295 = system: SF-295
LOX IMVI = system: LOX IMVI
ACHN = system: ACHN
COLO 205 = system: COLO 205
HCC 2998 = system: HCC 2998
M14 = system: M14
U-251 = system: U-251
T47D = system: T47D
K562 = system: K562
Malme-3M = system: Malme-3M
PC-3 = system: PC-3
MDA-MB-435 = system: MDA-MB-435
RXF 393 = system: RXF 393
UO-31 = system: UO-31
OVCAR-5 = system: OVCAR-5
SF-539 = system: SF-539
NCI-H522 = system: NCI-H522
OVCAR-3 = system: OVCAR-3
SK-OV-3 = system: SK-OV-3
IGROV-1 = system: IGROV-1
SN12C = system: SN12C
SNB-19 = system: SNB-19
NCI-H460 = system: NCI-H460
786-0 = system: 786-0
SW-620 = system: SW-620
CCRF-CEM = system: CCRF-CEM
HOP-62 = system: HOP-62
RPMI-8226 = system: RPMI-8226
Hs-578T = system: Hs-578T
SR = system: SR
HCT-15 = system: HCT-15
SK-MEL-5 = system: SK-MEL-5
UACC-62 = system: UACC-62
CAKI-1 = system: CAKI-1
HOP-92 = system: HOP-92
HCT-116 = system: HCT-116
MDA-N = system: MDA-N
NCI-H226 = system: NCI-H226
MCF7 = system: MCF7
BT-549 = system: BT-549
SNB-75 = system: SNB-75

SMILES: COc1ccc(-c2cc3cc(Cl)cc(Cl)c3oc2=O)cc1OC
- GI50 (EKVX): 92.9 µM (inactive)
- GI50 (HL-60): > 100 µM (inactive)
- GI50 (UACC-257): 51.1 µM (inactive)
- GI50 (MOLT-4): > 100 µM (inactive)
- GI50 (HT-29): 55.2 µM (inactive)
- GI50 (SK-MEL-28): 94.2 µM (inactive)
- GI50 (SF-268): 43.6 µM (inactive)
- GI50 (TK-10): 44.9 µM (inactive)
- GI50 (MDA-MB-231): 62.7 µM (inactive)
- GI50 (OVCAR-8): 65.8 µM (inactive)
- GI50 (DU-145): > 100 µM (inactive)
- GI50 (SK-MEL-2): > 100 µM (inactive)
- GI50 (NCI-H23): 36.5 µM (inactive)
- GI50 (A549): 92.3 µM (inactive)
- GI50 (KM12): 31.6 µM (inactive)
- GI50 (OVCAR-4): 32.8 µM (inactive)
- GI50 (NCI/ADR-RES): 56.9 µM (inactive)
- GI50 (A498): 79.1 µM (inactive)
- GI50 (SF-295): 48.5 µM (inactive)
- GI50 (LOX IMVI): > 100 µM (inactive)
- GI50 (ACHN): 37.7 µM (inactive)
- GI50 (COLO 205): > 100 µM (inactive)
- GI50 (HCC 2998): 44.7 µM (inactive)
- GI50 (M14): 60.3 µM (inactive)
- GI50 (U-251): 37.2 µM (inactive)
- GI50 (T47D): 46.8 µM (inactive)
- GI50 (K562): 33.3 µM (inactive)
- GI50 (Malme-3M): 59.8 µM (inactive)
- GI50 (PC-3): 46.9 µM (inactive)
- GI50 (MDA-MB-435): 65 µM (inactive)
- GI50 (RXF 393): 19.4 µM (inactive)
- GI50 (UO-31): 58.7 µM (inactive)
- GI50 (OVCAR-5): > 100 µM (inactive)
- GI50 (SF-539): 81.7 µM (inactive)
- GI50 (NCI-H522): 36.1 µM (inactive)
- GI50 (OVCAR-3): 29.4 µM (inactive)
- GI50 (SK-OV-3): 74.8 µM (inactive)
- GI50 (IGROV-1): 51.8 µM (inactive)
- GI50 (SN12C): 39.8 µM (inactive)
- GI50 (SNB-19): 28.2 µM (inactive)
- GI50 (NCI-H460): 36.7 µM (inactive)
- GI50 (786-0): 35.3 µM (inactive)
- GI50 (SW-620): > 100 µM (inactive)
- GI50 (CCRF-CEM): > 100 µM (inactive)
- GI50 (HOP-62): 40 µM (inactive)
- GI50 (RPMI-8226): 63.5 µM (inactive)
- GI50 (Hs-578T): 31.4 µM (inactive)
- GI50 (SR): 82 µM (inactive)
- GI50 (HCT-15): 48.8 µM
- GI50 (SK-MEL-5): 28.8 µM (inactive)
- GI50 (UACC-62): 63.2 µM (inactive)
- GI50 (CAKI-1): > 100 µM (inactive)
- GI50 (HOP-92): 46.6 µM (inactive)
- GI50 (HCT-116): 31.6 µM (inactive)
- GI50 (MDA-N): 94 µM (inactive)
- GI50 (NCI-H226): 43.9 µM (inactive)
- GI50 (MCF7): 59.3 µM (inactive)
- GI50 (BT-549): 57.3 µM (inactive)

SMILES: CC1(C)C2CCC1C(=O)C(C=O)C2 (stereo unspecified)
- GI50 (HL-60): 57.3 µM (inactive)
- GI50 (UACC-257): > 100 µM (inactive)
- GI50 (MOLT-4): > 100 µM (inactive)
- GI50 (HT-29): > 100 µM (inactive)
- GI50 (SK-MEL-28): > 100 µM (inactive)
- GI50 (SF-268): > 100 µM (inactive)
- GI50 (TK-10): > 100 µM (inactive)
- GI50 (MDA-MB-231): > 100 µM (inactive)
- GI50 (OVCAR-8): > 100 µM (inactive)
- GI50 (DU-145): > 100 µM (inactive)
- GI50 (SK-MEL-2): > 100 µM (inactive)
- GI50 (NCI-H23): > 100 µM (inactive)
- GI50 (A549): > 100 µM (inactive)
- GI50 (KM12): > 100 µM (inactive)
- GI50 (NCI/ADR-RES): > 100 µM (inactive)
- GI50 (A498): > 100 µM (inactive)
- GI50 (SF-295): > 100 µM (inactive)
- GI50 (LOX IMVI): > 100 µM (inactive)
- GI50 (ACHN): > 100 µM (inactive)
- GI50 (COLO 205): > 100 µM (inactive)
- GI50 (HCC 2998): > 100 µM (inactive)
- GI50 (M14): > 100 µM (inactive)
- GI50 (U-251): > 100 µM (inactive)
- GI50 (T47D): > 100 µM (inactive)
- GI50 (K562): > 100 µM (inactive)
- GI50 (Malme-3M): > 100 µM (inactive)
- GI50 (PC-3): > 100 µM (inactive)
- GI50 (MDA-MB-435): > 100 µM (inactive)
- GI50 (RXF 393): > 100 µM (inactive)
- GI50 (UO-31): > 100 µM (inactive)
- GI50 (OVCAR-5): > 100 µM (inactive)
- GI50 (SF-539): 74.5 µM (inactive)
- GI50 (NCI-H522): > 100 µM (inactive)
- GI50 (OVCAR-3): > 100 µM (inactive)
- GI50 (SK-OV-3): > 100 µM (inactive)
- GI50 (IGROV-1): > 100 µM (inactive)
- GI50 (SN12C): > 100 µM (inactive)
- GI50 (SNB-19): > 100 µM (inactive)
- GI50 (NCI-H460): > 100 µM (inactive)
- GI50 (786-0): > 100 µM (inactive)
- GI50 (SW-620): > 100 µM (inactive)
- GI50 (CCRF-CEM): > 100 µM (inactive)
- GI50 (HOP-62): > 100 µM (inactive)
- GI50 (RPMI-8226): > 100 µM (inactive)
- GI50 (Hs-578T): > 100 µM (inactive)
- GI50 (SNB-75): 79.1 µM (inactive)
- GI50 (SR): 3.16 µM (inactive)
- GI50 (HCT-15): 49.5 µM
- GI50 (SK-MEL-5): > 100 µM (inactive)
- GI50 (UACC-62): > 100 µM (inactive)
- GI50 (CAKI-1): > 100 µM (inactive)
- GI50 (HCT-116): > 100 µM (inactive)
- GI50 (MDA-N): > 100 µM (inactive)
- GI50 (NCI-H226): > 100 µM (inactive)
- GI50 (MCF7): > 100 µM (inactive)
- GI50 (BT-549): > 100 µM (inactive)

SMILES: COC(=O)CCC(C)[C@H]1CCC2C3C(C[C@H](OC(C)=O)[C@@]21C)[C@@]1(C)CCC2(C[C@H]1C[C@H]3OC(C)=O)OOC1(CCCCCCC1)OO2 (stereo partly specified)
- GI50 (EKVX): 1.36 µM (inactive)
- GI50 (HL-60): 4.3 µM (inactive)
- GI50 (UACC-257): 5.35 µM (inactive)
- GI50 (MOLT-4): 3.12 µM (inactive)
- GI50 (HT-29): 9.08 µM (inactive)
- GI50 (SK-MEL-28): > 100 µM (inactive)
- GI50 (SF-268): 6.27 µM (inactive)
- GI50 (TK-10): 6.53 µM (inactive)
- GI50 (MDA-MB-231): 8.26 µM (inactive)
- GI50 (OVCAR-8): 4.82 µM (inactive)
- GI50 (DU-145): 6.58 µM (inactive)
- GI50 (SK-MEL-2): > 100 µM (inactive)
- GI50 (NCI-H23): 6.55 µM (inactive)
- GI50 (A549): 4.56 µM (inactive)
- GI50 (KM12): 4.88 µM (inactive)
- GI50 (OVCAR-4): 39 µM (inactive)
- GI50 (NCI/ADR-RES): > 100 µM (inactive)
- GI50 (A498): > 100 µM (inactive)
- GI50 (SF-295): 6.38 µM (inactive)
- GI50 (LOX IMVI): 3.65 µM (inactive)
- GI50 (ACHN): 4.09 µM (inactive)
- GI50 (COLO 205): 7.62 µM (inactive)
- GI50 (M14): 27.9 µM (inactive)
- GI50 (U-251): 5.86 µM (inactive)
- GI50 (T47D): 2.02 µM (inactive)
- GI50 (K562): 4.67 µM (inactive)
- GI50 (Malme-3M): 9.89 µM (inactive)
- GI50 (PC-3): 3.4 µM (inactive)
- GI50 (MDA-MB-435): 18.4 µM (inactive)
- GI50 (RXF 393): > 100 µM (inactive)
- GI50 (UO-31): 7.26 µM (inactive)
- GI50 (OVCAR-5): > 100 µM (inactive)
- GI50 (SF-539): 18.6 µM (inactive)
- GI50 (NCI-H522): 10.9 µM (inactive)
- GI50 (OVCAR-3): 2.73 µM (inactive)
- GI50 (SK-OV-3): > 100 µM (inactive)
- GI50 (IGROV-1): 6.37 µM (inactive)
- GI50 (SN12C): 23.3 µM (inactive)
- GI50 (SNB-19): > 100 µM (inactive)
- GI50 (NCI-H460): 3.24 µM (inactive)
- GI50 (786-0): 6 µM (inactive)
- GI50 (SW-620): 6.3 µM (inactive)
- GI50 (CCRF-CEM): 4.97 µM (inactive)
- GI50 (HOP-62): 4.99 µM (inactive)
- GI50 (RPMI-8226): 1.67 µM (inactive)
- GI50 (Hs-578T): 4.05 µM (inactive)
- GI50 (SNB-75): 6.35 µM (inactive)
- GI50 (SR): 2.29 µM (inactive)
- GI50 (HCT-15): 5.52 µM
- GI50 (SK-MEL-5): 6.5 µM (inactive)
- GI50 (CAKI-1): 2.55 µM (inactive)
- GI50 (HOP-92): 7.55 µM (inactive)
- GI50 (HCT-116): 2.74 µM (inactive)
- GI50 (MDA-N): > 100 µM (inactive)
- GI50 (NCI-H226): 6.79 µM (inactive)
- GI50 (MCF7): 6.64 µM (inactive)
- GI50 (BT-549): 9.14 µM (inactive)
